Test results from patent US20230338316A1, “ABBAPOLINS AS INHIBITORS AND DEGRADERS OF POLO-LIKE KINASES” (UNIVERSITY OF SOUTH CAROLINA, priority 2022, published 2023).

How the values were obtained:
[1] = biological target: T1, PLK1 (Homo sapiens, UniProt P53350); assay: PLK1 degradation in HeLa cells; assay type: cell-based; parameters: endogenous in cells; settings: HeLa cell line, 24, 48 and 72 hours
Method: For example, PC3 cells were treated with varying dosages of abbapolin 6369, and percent of PLK1 degradation was measured at 24 hours (FIGS. 8A-8B). HeLa cells were treated with 25 μM abbapolin 6369, and time points shown in the assay were 24 hours, 48 hours, and 72 hours (FIGS. 9A-9B). PC3 cells were treated with varying dosages of abbapolin 6329, and percent of PLK1 degradation was measured at 24 hours (FIGS. […]). HeLa cells were treated with varying dosages of abbapolin 6329, and time points shown in the assay were 24 hours, 48 hours, and 72 hours (FIGS. 11A-11B).

[2] = biological target: T1, PLK1; assay: PLK1 degradation in SH-SY5Y cells; assay type: cell-based; parameters: endogenous in cells
Method: (§1) Abbapolin compounds activity was evaluated in neuroblastoma cells. […] Further, abbapolins induced PLK1 degradation in SH-SY5Y cells (FIG. 14-16).

[3] = biological target: T2, PLK1 PBD (367-603) (Homo sapiens, UniProt P53350); assay: Fluorescence polarization assay, PLK1 PBD; assay type: binding; settings: Table 10; target not named at the place; read-out: in vitro binding IC50
T2 construct: PLK1 PBD (367-603) and PLK3 PBD (335-646) proteins were obtained from BPS Biosciences Inc; purchased BPS Biosciences Inc. (San Diego, CA)
Method: Materials were dissolved in DMSO (10 mM) and diluted from 10 nM to 600 μM (maximum of 6% DMSO tolerance in the assay). PLK1 PBD (367-603) and PLK3 PBD (335-646) proteins were obtained from BPS Biosciences Inc. (San Diego, CA); 17 ng PLK1 and 156 ng PLK3 were used per reaction. The fluorescein-tracer phospho-peptides (MAGPMQS[pT]PLNGAKK (SEQ ID NO: 1) for PLK1, and GPLATS[pT]PKNG (SEQ ID NO: 2) for PLK3) were used at a final concentration of 10 nM. Incubation was carried out at room temperature for 45 minutes. Fluorescence was measured using a DTX 880 plate reader and Multimode Analysis software (Beckman Coulter, Brea, CA). The polarization values in millipolarization (mP) units were measured at an excitation wavelength of 488 nm and an emission wavelength of 535 nm. Each data point was performed in triplicate for every experiment, and experiments were performed at least three times. An IC50 value for each compound was calculated from linear regression analysis of the plots.

[4] = system: CCRF-CEM; assay: Single dose cell viability assay, CCRF-CEM; assay type: cell-based; settings: CCRF-CEM (Leukemia), single dose 10 μM
Method: (§2) Lead abbapolin compounds were tested in multiple cancer cell lines, including non-small cell lung cancer (NSCLC) cells, melanoma cells, colon cancer cells, central nervous system (CNS) cancer cells, prostate cancer cells, renal cancer cells, and breast cancer cells. Each of these cancer cells lines were sensitive to the lead abbapolin compounds in a cell viability assay, including 6184 (Table 3), 6277 (Table 4), 6279 (Table 5), 6355 (Table 6), 6359 (Table 7), 6369 (Table 8), and 6421 (Table 9).

[5] = system: MOLT-4; assay: Single dose cell viability assay, MOLT-4; assay type: cell-based; settings: MOLT-4 (Leukemia), single dose 10 μM
Method: as §2

[6] = system: PC3 prostate cancer xenografts; assay: PC3 prostate cancer xenograft study; assay type: in vivo, athymic nude mice
Method: (§3) The efficacy of promising abbapolin compounds were tested in multiple cancer cell lines. […] To do so, athymic nude mice were injected in their flanks with 2.7×10^6 PC3 prostate cancer cells. After the tumors established at 13 days, 5-8 mice per group were treated with 6359 and 6369 daily for 5 days (M-F) for a total of 15 days. […] This is in agreement with the PLK1 degradation in the xenograft tumor.

[7] = system: SH-SY5Y neuroblastoma cells overexpressing PLK1; assay: Cell viability assay in neuroblastoma cells; assay type: cell-based
Method: as §1

[8] = Tolerability in the PC3 xenograft study; assay type: in vivo, athymic nude mice
Method: as §3

[9] = Solubility in PBS; assay type: physicochemical; settings: expressed as IP dose
[10] = system: PC3 prostate cancer cells; assay: MTT cell viability assay, PC3; assay type: cell-based; settings: MTT, 72 hours
Method: PC3 prostate cancer cells were maintained in DMEM (Invitrogen™, Carlsebad, CA) supplemented with 10% FBS or Corning® Nu-serum™(BD™ Biosciences, Franklin Lakes, NJ) and 1% penicillin/streptomycin (Invitrogen™) in a humidified incubator and 5% CO2 at 37° C.
Exponentially growing cells were plated in 96-well dishes. Dose response curves were used to treat cells for 72 hours with inhibitors. Following the three-day treatment, cell viability was measured using the MTT (3-(4,5-dimethylthiazol-2-yl)-2,5-diphenyltetrazolium bromide) colorimetric assay. Cells were incubated for 3 hours with MTT allowing viable cells to metabolize the tetrazolium dye to a purple colored solution. Absorbance measurements (595 nm) were quantified using a DTX 880 plate reader and IC50 values were generated for FLIPs.

[11] = system: HOP-92; assay: Single dose cell viability assay, HOP-92; assay type: cell-based; settings: HOP-92 (NSCLC), single dose 10 μM
Method: as §2

[12] = system: RPMI-8226; assay: Single dose cell viability assay, RPMI-8226; assay type: cell-based; settings: RPMI-8226 (Leukemia), single dose 10 μM
Method: as §2

[13] = 6359 100 mg/kg oral, 6369 40 mg/kg IP, 15 days

T1 sequence (P53350 whole entry): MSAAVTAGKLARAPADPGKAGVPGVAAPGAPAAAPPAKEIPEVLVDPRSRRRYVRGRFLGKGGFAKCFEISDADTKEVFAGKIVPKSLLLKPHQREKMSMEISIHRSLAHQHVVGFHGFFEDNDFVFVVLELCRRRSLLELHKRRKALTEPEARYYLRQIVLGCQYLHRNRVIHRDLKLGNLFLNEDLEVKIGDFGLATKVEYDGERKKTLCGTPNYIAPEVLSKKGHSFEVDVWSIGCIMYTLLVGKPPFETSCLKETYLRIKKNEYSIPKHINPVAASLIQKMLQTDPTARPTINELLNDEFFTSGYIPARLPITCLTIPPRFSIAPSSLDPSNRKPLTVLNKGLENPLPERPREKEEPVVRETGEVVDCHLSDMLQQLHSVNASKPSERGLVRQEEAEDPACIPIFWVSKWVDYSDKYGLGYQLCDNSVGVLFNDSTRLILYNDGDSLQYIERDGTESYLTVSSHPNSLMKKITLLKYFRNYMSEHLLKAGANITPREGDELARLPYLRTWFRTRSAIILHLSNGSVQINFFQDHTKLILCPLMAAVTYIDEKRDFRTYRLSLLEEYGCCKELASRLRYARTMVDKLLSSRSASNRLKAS
T2 sequence (P53350 367-603): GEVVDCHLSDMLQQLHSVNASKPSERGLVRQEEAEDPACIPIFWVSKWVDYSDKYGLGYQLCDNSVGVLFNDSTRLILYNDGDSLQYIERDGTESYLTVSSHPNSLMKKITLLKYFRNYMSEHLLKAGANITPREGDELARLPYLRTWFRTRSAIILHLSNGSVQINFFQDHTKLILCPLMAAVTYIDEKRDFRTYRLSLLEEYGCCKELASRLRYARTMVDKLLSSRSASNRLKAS

## 3-(4-octylbenzamido)phenyl phosphate [compound 6369]
[1]
  PLK1 degradation: degradation of PLK1
[2]
  PLK1 degradation: degradation of PLK1
[3]
  IC50: 115 µM
[4]
  Cells Remaining (%): 24.97%
[5]
  Cells Remaining (%): 58.19%
[6]; 6359 100 mg/kg oral gavage, 6369 40 mg/kg IP, daily 5 days (M-F), total 15 days
  growth of PC3 tumors: slow the growth of PC3 tumors
[6]; isolated PC3 xenograft tumors
  PLK1 loss in the xenograft tumor: significantly more PLK1 loss compared to PBS and 6359
[7]
  IC50: 232 ± 55 µM
[8]; [13]
  body weight: no loss of body weight
  tolerability / toxicity: well tolerated
[8]; P>0.05
  change in liver, kidney, and prostate weight: non-significant
[9]
  limit of solubility in PBS: 40 mg/kg
[10]
  IC50: 2300 ± 900 nM
[11]
  Cells Remaining (%): 43.19%
[12]
  Cells Remaining (%): 39.13%
